Laboratory results reported in PMC5218480 (PLoS ONE, 2017).

Test system: MV-4-11 cells
Assay: Gene expression microarray analysis (Affymetrix PrimeView) and GSEA
Type: cell-based, human
Set-up: RFU PODN (11730768_x_at) / Fold change /veh PODN (11730768_x_at) / RFU LINC00158 (11744669_a_at) / Fold change /veh LINC00158 (11744669_a_at) / RFU DUSP10 (11751237_a_at) / Fold change /veh DUSP10 (11751237_a_at) / RFU ID3 (11757404_x_at) / Fold change /veh ID3 (11757404_x_at) / RFU PLEKHG5 (11737974_s_at) / Fold change /veh PLEKHG5 (11737974_s_at) / RFU LRRC4B (11730491_at) / Fold change /veh LRRC4B (11730491_at) / RFU GIMAP4 (11747438_a_at) / Fold change /veh GIMAP4 (11747438_a_at) / RFU KRT8 (11758183_x_at) / Fold change /veh KRT8 (11758183_x_at) / RFU CNN1 (11734310_a_at) / Fold change /veh CNN1 (11734310_a_at) / RFU VPS37D (11726825_at) / Fold change /veh VPS37D (11726825_at) / RFU C10orf10 (11716522_x_at) / Fold change /veh C10orf10 (11716522_x_at) / RFU KIR2DL2 /// KIR2DL4 /// KIR2DL5A /// KIR2DL5B /// KIR2DS1 /// KIR2DS2 /// KIR2DS3 /// KIR2DS4 /// KIR3DL3 /// KIR3DL3 /// KIR3DS1 (11738374_at) / Fold change /veh KIR2DL2 /// KIR2DL4 /// KIR2DL5A /// KIR2DL5B /// KIR2DS1 /// KIR2DS2 /// KIR2DS3 /// KIR2DS4 /// KIR3DL3 /// KIR3DL3 /// KIR3DS1 (11738374_at) / RFU C1QL1 (11718748_at) / Fold change /veh C1QL1 (11718748_at) / RFU TMPRSS4 (11747572_a_at) / Fold change /veh TMPRSS4 (11747572_a_at) / RFU HAMP (11756126_x_at) / Fold change /veh HAMP (11756126_x_at) / RFU RNFT2 (11725882_a_at) / Fold change /veh RNFT2 (11725882_a_at) / RFU NR4A2 (11747474_a_at) / Fold change /veh NR4A2 (11747474_a_at) / RFU ABCC12 (11746883_a_at) / Fold change /veh ABCC12 (11746883_a_at) / RFU TMEM136 (11760407_x_at) / Fold change /veh TMEM136 (11760407_x_at) / RFU CLDN22 /// WWC2 (11732394_at) / Fold change /veh CLDN22 /// WWC2 (11732394_at) / RFU HLA-DPB1 (11760878_x_at) / Fold change /veh HLA-DPB1 (11760878_x_at) / RFU SPINT1 (11716480_a_at) / Fold change /veh SPINT1 (11716480_a_at) / RFU GAP43 (11754022_s_at) / Fold change /veh GAP43 (11754022_s_at) / RFU A4GNT (11735810_at) / Fold change /veh A4GNT (11735810_at) / RFU PRB3 (11715151_x_at) / Fold change /veh PRB3 (11715151_x_at) / RFU TUBB4B (11761932_at) / Fold change /veh TUBB4B (11761932_at) / RFU CAPN14 (11732068_a_at) / Fold change /veh CAPN14 (11732068_a_at) / RFU TMCC2 (11721928_a_at) / Fold change /veh TMCC2 (11721928_a_at) / RFU IRGQ (11745062_a_at) / Fold change /veh IRGQ (11745062_a_at) / RFU FAM174B (11720279_a_at) / Fold change /veh FAM174B (11720279_a_at) / RFU TMPRSS4 (11748680_a_at) / Fold change /veh TMPRSS4 (11748680_a_at) / RFU FAM212B (11763350_a_at) / Fold change /veh FAM212B (11763350_a_at) / RFU PLEKHG5 (11743358_a_at) / Fold change /veh PLEKHG5 (11743358_a_at) / RFU ZSCAN30 (11745921_a_at) / Fold change /veh ZSCAN30 (11745921_a_at) / RFU CMKLR1 (11741424_a_at) / Fold change /veh CMKLR1 (11741424_a_at) / RFU LOC101060620 /// MAPK8IP1 (11723275_at) / Fold change /veh LOC101060620 /// MAPK8IP1 (11723275_at) / RFU SPTSSB (11747773_x_at) / Fold change /veh SPTSSB (11747773_x_at) / RFU PRSS12 (11739890_at) / Fold change /veh PRSS12 (11739890_at) / RFU BIN1 (11741810_x_at) / Fold change /veh BIN1 (11741810_x_at) / RFU WNT11 (11732464_a_at) / Fold change /veh WNT11 (11732464_a_at) / RFU C10orf10 (11716521_a_at) / Fold change /veh C10orf10 (11716521_a_at) / RFU C5orf56 (11738089_at) / Fold change /veh C5orf56 (11738089_at) / RFU CYB561 (11721691_x_at) / Fold change /veh CYB561 (11721691_x_at) / RFU ANKRD19P (11752326_a_at) / Fold change /veh ANKRD19P (11752326_a_at) / RFU OR2T12 /// OR2T33 /// OR2T8 (11738714_s_at) / Fold change /veh OR2T12 /// OR2T33 /// OR2T8 (11738714_s_at) / RFU VCAN (11748164_a_at) / Fold change /veh VCAN (11748164_a_at) / RFU JSRP1 (11732532_at) / Fold change /veh JSRP1 (11732532_at) / RFU KRTAP10-11 (11738290_x_at) / Fold change /veh KRTAP10-11 (11738290_x_at) / RFU MYO3A (11730013_a_at) / Fold change /veh MYO3A (11730013_a_at) / RFU EBF3 (11725865_a_at) / Fold change /veh EBF3 (11725865_a_at) / RFU CAMK2N1 (11719241_x_at) / Fold change /veh CAMK2N1 (11719241_x_at) / RFU C5orf56 (11738088_a_at) / Fold change /veh C5orf56 (11738088_a_at) / RFU OLFML3 (11715873_a_at) / Fold change /veh OLFML3 (11715873_a_at) / RFU LOC100653217 /// NTM (11731650_a_at) / Fold change /veh LOC100653217 /// NTM (11731650_a_at) / RFU MAPK11 (11762145_a_at) / Fold change /veh MAPK11 (11762145_a_at) / RFU FIZ1 (11724087_x_at) / Fold change /veh FIZ1 (11724087_x_at) / RFU OASL (11726364_x_at) / Fold change /veh OASL (11726364_x_at) / RFU SOX15 (11748057_x_at) / Fold change /veh SOX15 (11748057_x_at) / RFU CD79A (11719716_a_at) / Fold change /veh CD79A (11719716_a_at) / RFU HIST1H1D (11736915_at) / Fold change /veh HIST1H1D (11736915_at) / RFU CASKIN2 (11723855_a_at) / Fold change /veh CASKIN2 (11723855_a_at) / RFU LOC730098 (11760151_x_at) / Fold change /veh LOC730098 (11760151_x_at) / RFU OR4N2 (11742367_at) / Fold change /veh OR4N2 (11742367_at) / RFU PRRT2 (11749266_a_at) / Fold change /veh PRRT2 (11749266_a_at) / RFU SNX32 (11753110_a_at) / Fold change /veh SNX32 (11753110_a_at) / RFU CDHR5 (11726645_a_at) / Fold change /veh CDHR5 (11726645_a_at) / RFU RCAN1 (11760418_a_at) / Fold change /veh RCAN1 (11760418_a_at) / RFU FAM167A (11723789_a_at) / Fold change /veh FAM167A (11723789_a_at) / RFU FAM26E (11764081_at) / Fold change /veh FAM26E (11764081_at) / RFU ISYNA1 (11749810_s_at) / Fold change /veh ISYNA1 (11749810_s_at) / RFU ACY1 (11761880_at) / Fold change /veh ACY1 (11761880_at) / RFU 11764098_at / Fold change /veh 11764098_at / RFU SAMD14 (11745864_x_at) / Fold change /veh SAMD14 (11745864_x_at) / RFU NPB (11741838_a_at) / Fold change /veh NPB (11741838_a_at) / RFU TMPRSS6 (11731388_a_at) / Fold change /veh TMPRSS6 (11731388_a_at) / RFU KRTAP10-2 (11738614_at) / Fold change /veh KRTAP10-2 (11738614_at) / RFU ARHGAP8 /// PRR5-ARHGAP8 (11727945_x_at) / Fold change /veh ARHGAP8 /// PRR5-ARHGAP8 (11727945_x_at) / RFU KRTAP5-7 /// NADSYN1 (11734609_at) / Fold change /veh KRTAP5-7 /// NADSYN1 (11734609_at) / RFU RASL12 (11751679_a_at) / Fold change /veh RASL12 (11751679_a_at) / RFU CDKN2B (11736163_a_at) / Fold change /veh CDKN2B (11736163_a_at) / RFU PRF1 (11729649_at) / Fold change /veh PRF1 (11729649_at) / RFU, ZNF638 /// ZNF638-IT1 / Fold change vs veh, ZNF638 /// ZNF638-IT1 / RFU, PANK3 / Fold change vs veh, PANK3 / RFU, SH3YL1 / Fold change vs veh, SH3YL1 / RFU, ZEB2 / Fold change vs veh, ZEB2 / RFU, NRIP1 / Fold change vs veh, NRIP1 / RFU, PTTG1IP / Fold change vs veh, PTTG1IP / RFU, CAPN2 / Fold change vs veh, CAPN2 / RFU, MED14 / Fold change vs veh, MED14 / RFU, SNORA58 / Fold change vs veh, SNORA58 / RFU, C1orf63 / Fold change vs veh, C1orf63 / RFU, LRRFIP1 / Fold change vs veh, LRRFIP1 / RFU, NDUFAF7 / Fold change vs veh, NDUFAF7 / RFU, SLC12A2 / Fold change vs veh, SLC12A2 / RFU, IBTK / Fold change vs veh, IBTK / RFU, ESF1 / Fold change vs veh, ESF1 / Fold change vs veh, TMEM50B / RFU, TAOK1 / Fold change vs veh, TAOK1 / RFU, ACBD3 / Fold change vs veh, ACBD3 / RFU, TMA16 / Fold change vs veh, TMA16 / RFU, RWDD3 / Fold change vs veh, RWDD3 / RFU, BCAT1 / Fold change vs veh, BCAT1 / RFU, EDEM3 / Fold change vs veh, EDEM3 / RFU, TMEM33 / Fold change vs veh, TMEM33 / RFU, WDR75 / Fold change vs veh, WDR75 / RFU, AHCTF1 / Fold change vs veh, AHCTF1 / RFU, TFRC / Fold change vs veh, TFRC / RFU, ZDHHC17 / Fold change vs veh, ZDHHC17 / RFU, NOM1 / Fold change vs veh, NOM1 / RFU, ARL8B / Fold change vs veh, ARL8B / RFU, ZBTB11 / Fold change vs veh, ZBTB11 / RFU, TAMM41 / Fold change vs veh, TAMM41 / RFU, KIAA1704 /// LOC100996395 / Fold change vs veh, KIAA1704 /// LOC100996395 / RFU, ING1 / Fold change vs veh, ING1 / RFU, TRMT61B / Fold change vs veh, TRMT61B / RFU, FUBP3 / Fold change vs veh, FUBP3 / RFU, TP53 / Fold change vs veh, TP53 / RFU, TNKS2 / Fold change vs veh, TNKS2 / RFU, ZFP14 / Fold change vs veh, ZFP14 / RFU, ACTR2 / Fold change vs veh, ACTR2 / RFU, PPP3R1 / Fold change vs veh, PPP3R1 / RFU, PIK3R1 / Fold change vs veh, PIK3R1 / RFU, HNRNPA1 / Fold change vs veh, HNRNPA1 / RFU, RNF170 / Fold change vs veh, RNF170 / RFU, ZNF28 / Fold change vs veh, ZNF28 / RFU, RNGTT / Fold change vs veh, RNGTT / RFU, OGT / Fold change vs veh, OGT / RFU, BRD1 / Fold change vs veh, BRD1 / RFU, MARS / Fold change vs veh, MARS / RFU, ZNF655 / Fold change vs veh, ZNF655 / RFU, FAHD1 / Fold change vs veh, FAHD1 / RFU, BDP1 / Fold change vs veh, BDP1 / RFU, LRRCC1 / Fold change vs veh, LRRCC1 / RFU, ARID1A / Fold change vs veh, ARID1A / RFU, ZNF146 / Fold change vs veh, ZNF146 / RFU, ZNF330 / Fold change vs veh, ZNF330 / RFU, GPN3 / Fold change vs veh, GPN3 / RFU, C9orf123 / Fold change vs veh, C9orf123 / RFU, N4BP2L2 / Fold change vs veh, N4BP2L2 / RFU, ARFIP1 / Fold change vs veh, ARFIP1 / RFU, FAM179B / Fold change vs veh, FAM179B / RFU, BCL10 / Fold change vs veh, BCL10 / RFU, UHRF1BP1L / Fold change vs veh, UHRF1BP1L / RFU, BET1 / Fold change vs veh, BET1 / RFU, CNOT2 / Fold change vs veh, CNOT2 / RFU, ZNF268 / Fold change vs veh, ZNF268 / Fold change vs veh, ZNF507 / RFU, DGCR2 / Fold change vs veh, DGCR2 / RFU, WDSUB1 / Fold change vs veh, WDSUB1 / Fold change vs veh, HSP90B1 /// MIR3652 / RFU, ADSS / Fold change vs veh, ADSS / RFU, GK / Fold change vs veh, GK / RFU, ZNF148 / Fold change vs veh, ZNF148 / RFU, TAF9 / Fold change vs veh, TAF9 / RFU, SLC1A5 / Fold change vs veh, SLC1A5 / RFU, SLMO2 / Fold change vs veh, SLMO2 / RFU, ABCC4 / Fold change vs veh, ABCC4 / RFU, LOC101060439 /// RAP1B / Fold change vs veh, LOC101060439 /// RAP1B / RFU, RFX7 / Fold change vs veh, RFX7 / RFU, GTPBP10 / Fold change vs veh, GTPBP10 / RFU, CNEP1R1 / Fold change vs veh, CNEP1R1 / RFU, BIVM-ERCC5 /// ERCC5 / Fold change vs veh, BIVM-ERCC5 /// ERCC5 / RFU, ILF3 / Fold change vs veh, ILF3 / RFU 11762660_at / Fold change /veh 11762660_at / RFU VCAN (11757783_s_at) / Fold change /veh VCAN (11757783_s_at) / RFU DDX43 (11728927_at) / Fold change /veh DDX43 (11728927_at) / RFU KRT8 (11758188_x_at) / Fold change /veh KRT8 (11758188_x_at) / RFU NKD1 (11759106_at) / Fold change /veh NKD1 (11759106_at) / RFU SRD5A1 (11742802_a_at) / Fold change /veh SRD5A1 (11742802_a_at) / RFU TPSAB1 /// TPSB2 (11721975_s_at) / Fold change /veh TPSAB1 /// TPSB2 (11721975_s_at) / RFU GSTM3 (11746129_a_at) / Fold change /veh GSTM3 (11746129_a_at) / RFU IL23R (11737362_x_at) / Fold change /veh IL23R (11737362_x_at) / RFU TMEM51 (11727254_a_at) / Fold change /veh TMEM51 (11727254_a_at) / RFU PIWIL2 (11732686_x_at) / Fold change /veh PIWIL2 (11732686_x_at) / RFU ORM1 (11744905_x_at) / Fold change /veh ORM1 (11744905_x_at) / RFU CCDC152 (11743942_at) / Fold change /veh CCDC152 (11743942_at) / RFU ECM1 (11717891_a_at) / Fold change /veh ECM1 (11717891_a_at) / RFU IL23R (11748794_a_at) / Fold change /veh IL23R (11748794_a_at) / RFU TNFAIP8L3 (11732012_x_at) / Fold change /veh TNFAIP8L3 (11732012_x_at) / RFU MBOAT4 (11741988_at) / Fold change /veh MBOAT4 (11741988_at) / RFU 11764193_at / Fold change /veh 11764193_at / RFU TMEM53 (11763286_at) / Fold change /veh TMEM53 (11763286_at) / RFU MAGEB2 (11727129_at) / Fold change /veh MAGEB2 (11727129_at) / RFU TMEM200A (11744735_a_at) / Fold change /veh TMEM200A (11744735_a_at) / RFU CCDC152 (11751479_a_at) / Fold change /veh CCDC152 (11751479_a_at) / RFU FAM211A (11726209_a_at) / Fold change /veh FAM211A (11726209_a_at) / RFU RGS16 (11746705_a_at) / Fold change /veh RGS16 (11746705_a_at) / RFU VCAN (11755009_s_at) / Fold change /veh VCAN (11755009_s_at) / RFU RHOB (11743442_s_at) / Fold change /veh RHOB (11743442_s_at) / RFU RGS16 (11720943_a_at) / Fold change /veh RGS16 (11720943_a_at) / RFU RGS16 (11720944_at) / Fold change /veh RGS16 (11720944_at) / RFU, VPS4B / Fold change vs veh, VPS4B / RFU, CREB1 / Fold change vs veh, CREB1 / RFU, DNAJC13 / Fold change vs veh, DNAJC13 / RFU, GNAQ / Fold change vs veh, GNAQ / RFU, CDK5R1 / Fold change vs veh, CDK5R1 / RFU, ZRANB3 / Fold change vs veh, ZRANB3 / RFU, CUL4A / Fold change vs veh, CUL4A / RFU, CCNY / Fold change vs veh, CCNY / RFU, UFL1 / Fold change vs veh, UFL1 / RFU, COG3 / Fold change vs veh, COG3 / RFU, DIAPH2 / Fold change vs veh, DIAPH2 / RFU, SKA2 / Fold change vs veh, SKA2 / RFU, AFF3 / Fold change vs veh, AFF3 / RFU, LMF1 / Fold change vs veh, LMF1 / RFU, IPO11 / Fold change vs veh, IPO11 / RFU, DFFB / Fold change vs veh, DFFB / RFU, FOXP1 / Fold change vs veh, FOXP1 / RFU, CARD8 / Fold change vs veh, CARD8 / RFU, STRN3 / Fold change vs veh, STRN3 / RFU, ADK / Fold change vs veh, ADK / RFU, RASSF2 / Fold change vs veh, RASSF2 / RFU, WIPF1 / Fold change vs veh, WIPF1 / RFU, LARP1B / Fold change vs veh, LARP1B / RFU, RASA1 / Fold change vs veh, RASA1 / RFU, RB1 / Fold change vs veh, RB1 / RFU, PPFIA1 / Fold change vs veh, PPFIA1 / RFU, MAT2A / Fold change vs veh, MAT2A / RFU, CCT5 / Fold change vs veh, CCT5 / RFU, WDR92 / Fold change vs veh, WDR92 / RFU, CUX1 / Fold change vs veh, CUX1 / RFU, TTC7A / Fold change vs veh, TTC7A / RFU, TMEM135 / Fold change vs veh, TMEM135 / RFU, DEPTOR / Fold change vs veh, DEPTOR / RFU, CPM / Fold change vs veh, CPM / RFU, DNAJB6 / Fold change vs veh, DNAJB6 / RFU, CACNA2D3 / Fold change vs veh, CACNA2D3 / RFU, DTX4 / Fold change vs veh, DTX4 / RFU, TFCP2 / Fold change vs veh, TFCP2 / RFU, GMCL1 /// GMCL1P1 / Fold change vs veh, GMCL1 /// GMCL1P1 / RFU, AEBP2 / Fold change vs veh, AEBP2 / RFU, SNHG1 /// SNORD22 /// SNORD25 /// SNORD26 /// SNORD27 /// SNORD28 /// SNORD29 /// SNORD31 / Fold change vs veh, SNHG1 /// SNORD22 /// SNORD25 /// SNORD26 /// SNORD27 /// SNORD28 /// SNORD29 /// SNORD31 / Fold change (Aza/veh), C12orf56 (ProbeSet 11735607_a_at) / Fold change (ACY-1035/veh), C12orf56 (ProbeSet 11735607_a_at) / Fold change (Aza/veh), FGFR1OP (ProbeSet 11751329_s_at) / Fold change (ACY-1035/veh), FGFR1OP (ProbeSet 11751329_s_at) / Fold change (Aza/veh), VPS36 (ProbeSet 11739960_a_at) / Fold change (ACY-1035/veh), VPS36 (ProbeSet 11739960_a_at) / RFU SYPL1 (11715823_x_at) / Fold change /veh SYPL1 (11715823_x_at) / RFU IGFBP7 (11715501_s_at) / Fold change /veh IGFBP7 (11715501_s_at) / RFU REEP3 (11722064_at) / Fold change /veh REEP3 (11722064_at) / RFU IGLL1 (11728026_x_at) / Fold change /veh IGLL1 (11728026_x_at): dose or concentration left out as unconfirmed
Details: ProbeSet 11745428_a_at; LIST D

## Nc1ncn([C@@H]2O[C@H](CO)[C@@H](O)[C@H]2O)c(=O)n1 [azacitidine]
  Fold change vs veh, DFFB: 0.78
